In publication PMC10376999 (Biomedicines, 2023):
Values joined by “and” are separate entries in the source; they are usually repeats but may differ in a detail not shown here. Identical values can stand only once. Like-named read-outs stand apart in the source and are kept apart here. Each block holds one compound with its values, some of them ahead of it.

Legend:
[1] = system: COC(=O)c1ccccc1-c1c2ccc(=N)cc-2oc2cc(N)ccc12
Text: (3) V=Vmax[S]^n/Km^n+[S]^n
(§1) In this equation, V is the substrate transport velocity in static conditions, [S] is the substrate (R123) concentration, Vmax is the maximum velocity of R123 transport, Km is Michaelis–Menten constant, and n is the Hill slope or degree, which usually explains the cooperative behavior in substance transport. It should be noted that, in this definition, Km = [S] when V = 0.5 Vmax.
(§2) It is assumed that when the inhibitor is present, any R123 molecule that passed through the membrane passed by means of passive transport [29]. […] (R123 concentration) curve was plotted (Figure 8) using online monitoring results, providing the R123 concentration.

MDR1 [2] = assay: Quantitative measurement of MDR1 expression by sandwich ELISA; type: cell-based, human; conditions: RPTECs, tariquidar 50 µg/mL, static and dynamic conditions
Protocol: To measure the amount of MDR1 expressed in different conditions, a sandwich enzyme-linked immunosorbent assay (ELISA) kit for MDR1 (antibodies-online, Aachen, Germany) was used. After each experiment, lysed cells were centrifuged at 5000× g for 5 min (at 4 °C); then, the supernatant was collected for ELISA [27]. For each experimental condition, three samples were prepared, with each sample measured in duplicates.
The amount of MDR1 expressed in the cell-based artificial proximal tubule was measured by the ELISA quantitative measurement.
To confirm, we performed the Student’s t-test; there is no significant difference in the mean values of MDR1 concentration in different conditions.

MDR1 [3] = system: MDR1; parameters: method as in PMID 28487651; conditions: tariquidar in interaction with MDR1; read-out: KI (inhibition constant); cited from earlier work
[4] = system: RPTEC/TERT1 artificial tubular barrier; conditions: human
Protocol: (§3) Experiments were performed using an immortalized human renal proximal tubular epithelial cell line (RPTEC/TERT1) [21], which was supplied by Evercyte GmbH (Vienna, Austria). […] To bring these cells into culture 0.6 × 10^5 cells were seeded onto 24-well plates Thincert Transwell inserts (0.33 cm^2, 0.4 µm pore size; Greiner Bio-one) and further cultured in ProxUp Basal Medium (Evercyte, Austria). The cells were cultured on Thincert inserts (Greiner Bio-one, Frickenhausen, Germany) for at least 8 days to ensure the formation of a confluent cell monolayer. The cell layer integrity was confirmed by measuring the trans-epithelial electrical resistance (TEER) with an epithelial volt-ohm-meter (EVOM, Millicel, Darmstadt, Germany). Transwell inserts were used for transport experiments when TEER values exceeded 150 Ω × cm^2.
(§4) The transport of R123 and HSA-647 across the tubular barrier was carried out under static and dynamic cultivation conditions. The static conditions were carried out by placing the Transwell^TM inserts on a well plate, with no pressure or flow applied.
(§5) Fluorescence intensity at the beginning and end of the experiments was measured using a microplate reader (Tecan Infinite Pro, Tecan Group, Switzerland), and a miniaturized fluorescence reader (Fluo Sens Integrated, Qiagen, Hilden, Germany) was used for online monitoring. […] Using the calibration curves, the fluorescent intensity (FU) results were converted to concentration (µM).
(§6) During the transport assays, the decrease in the fluorescence intensity in the artificial microfluidic channels mimicking the peritubular capillary structures (in the well, see Figure 2; compartment 7) was measured constantly. R123 (2 μM) and HSA-647 (0.6 µM) were added to the cell culture medium and to the microfluidic channel (Figure 2), and a Transwell insert populated with cells (compartment 4 in Figure 2).
(§7) The whole system was then placed on the Qiagen fluorescence meter in such a way that only the fluorescence signal of the cell culture medium in the channels (compartment 1 in Figure 2) was measured every 120 s for maximum 48 h. Cell-free Transwell^TM inserts were used as a control. Transport assay experiments for each condition were performed and measured in triplicates.

MDR1 [5] = conditions: cited from earlier work
OAT1 = system: OAT1; parameters: method as in PMID 23140242, PMID 22470447; conditions: OAT1-mediated transport, Michaelis–Menten model; cited from earlier work
MDR1 [6] = target: MDR1 (Homo sapiens, UniProt P08183); assay: Kinetic characterization (Hill fit) of MDR1-mediated R123 transport above the artificial tubular barrier
Text: (3) V=Vmax[S]^n/Km^n+[S]^n
as §1, §2

[7] = system: RPTEC/TERT1 artificial tubular barrier; assay: Transport assay of R123 and HSA-647 across the artificial tubular barrier on Transwell inserts, static and in the microphysiological system (pressure, flow); conditions: for Concentration of R123 in the peritubular capillary after 48 h: start 2 µM
Protocol: as §3, §4, §5, §6, §7

[8] = absence of inhibitor, static, from the literature

Chain of MDR1 (Homo sapiens, UniProt P08183) (P08183 whole entry): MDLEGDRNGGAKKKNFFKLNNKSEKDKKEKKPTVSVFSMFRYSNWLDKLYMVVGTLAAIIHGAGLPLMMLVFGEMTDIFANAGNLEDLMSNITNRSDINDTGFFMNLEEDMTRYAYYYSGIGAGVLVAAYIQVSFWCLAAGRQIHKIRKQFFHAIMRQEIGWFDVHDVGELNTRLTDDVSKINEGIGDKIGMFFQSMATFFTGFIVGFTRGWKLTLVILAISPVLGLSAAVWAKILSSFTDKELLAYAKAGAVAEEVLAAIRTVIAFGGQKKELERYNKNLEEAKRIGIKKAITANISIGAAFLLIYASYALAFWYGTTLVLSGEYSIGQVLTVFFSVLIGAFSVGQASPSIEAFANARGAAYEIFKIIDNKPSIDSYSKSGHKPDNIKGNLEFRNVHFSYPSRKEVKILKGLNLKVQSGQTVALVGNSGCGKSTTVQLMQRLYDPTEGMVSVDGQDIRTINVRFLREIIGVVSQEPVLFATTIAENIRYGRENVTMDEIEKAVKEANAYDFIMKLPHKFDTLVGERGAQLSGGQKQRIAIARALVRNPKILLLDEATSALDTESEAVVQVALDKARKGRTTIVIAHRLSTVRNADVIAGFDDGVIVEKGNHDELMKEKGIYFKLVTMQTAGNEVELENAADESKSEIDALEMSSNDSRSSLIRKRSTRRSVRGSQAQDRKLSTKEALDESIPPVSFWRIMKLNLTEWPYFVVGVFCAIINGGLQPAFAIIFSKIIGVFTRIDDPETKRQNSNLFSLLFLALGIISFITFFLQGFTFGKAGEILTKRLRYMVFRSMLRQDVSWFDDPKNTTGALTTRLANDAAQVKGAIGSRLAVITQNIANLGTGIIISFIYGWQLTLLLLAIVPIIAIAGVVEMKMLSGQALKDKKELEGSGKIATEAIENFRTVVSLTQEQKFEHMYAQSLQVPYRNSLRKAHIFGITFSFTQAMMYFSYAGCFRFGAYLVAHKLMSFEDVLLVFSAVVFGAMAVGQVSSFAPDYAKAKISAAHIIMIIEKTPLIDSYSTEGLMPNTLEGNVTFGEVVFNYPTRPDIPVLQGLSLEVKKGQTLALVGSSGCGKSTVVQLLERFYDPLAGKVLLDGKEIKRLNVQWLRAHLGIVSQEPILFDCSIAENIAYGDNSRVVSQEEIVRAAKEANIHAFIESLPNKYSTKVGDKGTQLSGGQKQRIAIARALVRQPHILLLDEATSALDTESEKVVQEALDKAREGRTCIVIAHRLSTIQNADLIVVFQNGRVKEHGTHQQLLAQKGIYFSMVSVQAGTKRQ

Compound: MDR1 (Homo sapiens)
Km [1]: 17.47 ± 8 µM

Compound: COc1cc2c(cc1OC)CN(CCc1ccc(NC(=O)c3cc(OC)c(OC)cc3NC(=O)c3cnc4ccccc4c3)cc1)CC2 [tariquidar]
Effect on the level of MDR1 protein (ELISA) (MDR1 [2]): did not affect the level of MDR1 protein | Ki (MDR1 [3]): 0.32 nM

Passive transport of R123, JR123,F,PT, calculated from equation [4]: 0.026 pmol/min | Passive transport of R123, JR123,P,PT, calculated from equation [4]: 0.0102 pmol/min | Passive permeability P ([4]; 2 µM): 1.5e-08 L/min | Rdiffflow (effect of flow on total transport compared to static) ([4]; 2 µM): 0.0434 pmol/min | Rdiffpressure (effect of pressure on total transport compared to static) ([4]; 2 µM): 0.0009 pmol/min | Total transport rate of R123, JR123flow ([4]; 2 µM): 0.112 pmol/min | Total transport rate of R123, JR123pressure ([4]; 2 µM): 0.069 pmol/min | Total transport rate of R123, JR123static ([4]; 2 µM): 0.068 pmol/min | Sieving coefficient θ ([4]; 48 h, 2 µM): 0.22 | Active transport rate of R123, JR123AT,flow (MDR1 [6]; 0.13 µL/s flow, total minus passive transport rate): 0.048 pmol/min | Active transport rate of R123, JR123AT,pressure (MDR1 [6]; 5 mbar pressure, total minus passive transport rate): 0.042 pmol/min | n (Hill slope) (MDR1 [6]; absence of inhibitor, static, present study): 2 | n (Hill slope) (MDR1 [6]; presence of tariquidar, static, present study): 2 | Active transport rate of R123, JR123AT,static (MDR1 [6]; static, total minus passive transport rate): 0.038 pmol/min | Concentration of R123 in the peritubular capillary after 48 h ([7]; 0.13 µL/s flow, no tariquidar): 600 nM | Concentration of R123 in the peritubular capillary after 48 h ([7]; 5 mbar pressure, no tariquidar): 1100 nM | AVG R123 conc. In well, fluorescence endpoint after 48 hours ([7]; flow): 0.92 µM | AVG R123 conc. In well, fluorescence endpoint after 48 hours ([7]; flow inhibited): 0.25 µM | AVG R123 conc. In well, fluorescence endpoint after 48 hours ([7]; pressure): 0.68 µM | AVG R123 conc. In well, fluorescence endpoint after 48 hours ([7]; pressure inhibited): 0.24 µM | AVG R123 conc. In well, fluorescence endpoint after 48 hours ([7]; static inhibited): 0.22 µM | Concentration of R123 in the peritubular capillary after 48 h ([7]; static, no tariquidar): 1500 nM | Concentration of R123 in the peritubular capillary after 48 h ([7]; static, tariquidar present): 1700 nM
Compound: COC(=O)c1ccccc1-c1c2ccc(=N)cc-2oc2cc(N)ccc12 [R123, Rhodamine 123]
Km (MDR1 [5]; MDR1-mediated transport, Michaelis–Menten model): 17.5 ± 2.8 µM | Km (MDR1 [5]; [8]): ~17.5 µM | Vmax (MDR1 [5]; [8]): 0.0525 pmol/min and 0.0525 [22] pmol/min | Km (MDR1 [5]; presence of inhibitor (non-competitive, Km unchanged), static, from the literature): ~17.5 µM | n (Hill slope) (MDR1 [5]; presence of inhibitor, static, from the literature): 2 [22, 28] | Km (OAT1): 0.3 ± 0.1 µM | V'max (MDR1 [6]; presence of tariquidar, static, calculated from Vmax/(1+[I]/KI) with literature KI = 0.32 nM (ref 32)): 2.18 × 10^−7 pmol/min and 2.18 × 10^−7 (from Equation (3)) [32] pmol/min | V'max (MDR1 [6]; presence of tariquidar, static, from curve fitting, present study): 1.25 × 10^−7 ± 3 × 10^−9 pmol/min and 1.25 × 10^−7 ± 3 × 10^−9 (from curve fitting) pmol/min
